Data on one compound can be found in patent publication EP4537820A1, “COMPOUND AND COMBINATIONS COMPRISING SAID COMPOUND TO IMPROVE IMMUNE RESPONSE” (Institut Gustave-Roussy, priority 2023, dated 2025).

One test concerns A375 REGγ KO cells. The test is described as follows: MTT assay. Type of test: cell-based. As to conditions: Homo sapiens, A-375, 24-hour treatment, read-out: IC50 (cell viability). The method, then:
(§1) 2,5×10^4 of MCA cells or 5×10^4 of MCA c13 cells were plated in quadruplicates in clear 96-well plates and incubated overnight. The next day, cells were with various concentration of the tested compounds for 24h. After treatment, media was carefully removed before adding 50µL of new media and 10µL of tetrazolium salt solution (5mg/mL in PBS) and homogeneizing the well by pipetting up and down. The plate was then incubated for 2 hours at 37°C. After incubation, plate was centrifuged 5min at 1500rpm before adding 150µL of DMSO to each well to solubilize the formazan cristals. The plate was incubated on agitation for 10min and absorbance was read at 544nm using a EL808 (Biotek) plate reader.
(§2) To assess the efficacy of compound 58 against tumor cell lines, inventors initially aimed to determine its IC50 values in both mouse and human cell lines. They utilized an MTT assay to ascertain these values for mouse MCA fibrosarcoma and human A375 melanoma cell lines. Specifically, they treated 2.5 × 10^4 MCA WT or MCA REGγ KO cells and 5 × 10^4 human A375 WT or A375 REGγ KO cells with varying concentrations of compound 58 for a 24-hour duration.

The subject of the next test is MCA REGγ KO cells. The test is described as follows: MTT assay. Type of test: cell-based. As to conditions: Mus musculus, 24-hour treatment, read-out: IC50 (cell viability). The procedure: as §1, §2
In test [1] the test system is A375 WT cells (A375 melanoma). The test is described as follows: MTT assay. The settings on record: Homo sapiens, A-375, 24-hour treatment, read-out: IC50 (cell viability). Type of test: cell-based. The method, then:
as §1, §2

In test [2] the test system is MCA WT cells (MCA fibrosarcoma). The test is described as follows: MTT assay. Type of test: cell-based. As to conditions: Mus musculus, 24-hour treatment, read-out: IC50 (cell viability). The method, then: as §1, §2
For test [3], the system named is T1, 20S proteasome.
T1 construct: purified 20S proteasome from human erythrocytes; purchased Biotechne E-360-050; host or cells: human erythrocytes
The experiment in a line: Thermal Shift Assay (nanoDSF) with 20S. The settings on record: 20S 50nM, compound at 100X (5µM, 0,1% DMSO). Type of test: binding, human. The procedure:
Thermal shift assay was carried out with nano differential scanning fluorimetry (nanoDSF) using the Tycho NT.6 from Nanotemper and was performed at the I2BC platform (Gif-sur-Yvette). Samples were prepared in a final volume of 25µL in a 96-well plate prior to be loaded on the Tycho capillaries. Proteins were diluted in activity buffer (20mM Tris-HCl pH 7.4 and 20mM NaCl). After optimisation, REGγ concentration was set to 500nM and 20S concentration to 50nM. Compounds concentrations were determined as ratios to protein concentration and to stay below 0,5% of DMSO; accordingly, compounds with REGγ were tested at 40X (20µM, 0,4% DMSO) and at 100X (5µM, 0,1% DMSO) with 20S. A thermal ramp was applied from 20 to 95°C and fluorescence was followed at 350nm and 330 nm, measuring intrinsic fluorescence of the proteins from tryptophan and tyrosine residues. Binding was detected as a shift in the inflection temperature (Ti) compared to the DMSO control.
To assess the efficacy of molecule 58 in directly binding to REGγ, inventors conducted a thermal shift assay (TSA). TSA leverages the property of proteins to undergo unfolding at specific temperatures, and the interaction with a ligand can alter the thermal stability, leading to a shift in the unfolding temperature. In their study, inventors examined how the compound 58 interacted with REGγ and monitored the change in melting temperature (ΔTm).

Test [4] concerns T1, 20S proteasome. The experiment in a line: Proteasome Activity Assay with fluorogenic AMC substrates, without REGγ. Type of test: biochemical, human. The settings on record: 20S proteasome not in the presence of REGγ, even at high doses. The method, then: Proteasome Activity Assay - The activity of the 20S and 20S-REGγ proteasomes was followed by fluorescence using the Bz-VGR-AMC (#BML-BW9375-0005, Enzo Life Sciences) substrate at 50µM for tryspin-like activity, the Suc-LLVY-AMC (#BML-P802-0005, Enzo Life Sciences) substrate at 100µM for the chemotrypsin-like activity and the Z-LLE-AMC (#BML-ZW9345-0005, Enzo Life Sciences) substrate at 100µM for the caspase-like activity. Substrates were incubated with 0,5nM of human 20S ((#E-360-050, Biotechne) and 12,5nM of human REGγ or 2nM of human REGαβ with or without compounds at different concentrations. Purified human REGγ and REGGαβ were generously provided by Julien Marcoux and Marie-Pierre Bousquet-Dubouch. Human REGγ and REGαβ were purified according to Le Feuvre et al., 2009 from plasmids kindly provided by Olivier Coux. The activity assay was performed in 96 well plates in a final volume of 80µL. Plates were read every minute for 90 minutes with a FLUOstar plate reader (BMG Labtech). To detect fluorescence, the excitation wavelength was set to 355nm and emission wavelength at 460nm. […]

Consider `Cc1ccc(N=Nc2ccc(C)cc2NC(=O)Nc2ccccc2F)cc1` [compound 58], for which the half-maximal inhibitory concentration (IC50) in the test on A375 REGγ KO cells turned out to be 486 µM; with MCA REGγ KO cells, 99.6 µM; in test [1] it was 150 µM; in test [2], 39.1 µM. Further, the “change in melting temperature (ΔTm)” value in the test on 20S proteasome [3] is listed as “no significant change in ΔTm”. Also, in the test on 20S proteasome [4], the “inhibitory effect on the three activities (trypsin-like, caspase-like, chymotrypsin-like)” value was “did not exhibit any inhibitory effect”.
